The nature of this data set: Dissolution of Apixaban in non-halogen and halogen organic solvents. Type of data set: physicochemical. The procedure: 25 mg of Apixaban was added to 1 mL of each of ethyl acetate, ethyl formate, methyl propionate, and ethanol and stirred. As a result, it was confirmed that Apixaban was not dissolved in non-halogen organic solvents (FIG. 1).
25 mg of Apixaban was dissolved in 1 mL of dichloromethane, and the mixture was photographed after 12 hours.

As to `COc1ccc(-n2nc(C(N)=O)c3c2C(=O)N(c2ccc(N4CCCCC4=O)cc2)CC3)cc1` [Apixaban], under “25 mg in 1 mL of dichloromethane, photographed after 12 hours”, the “Dissolution of Apixaban in halogen organic solvent” value is reported as “completely dissolved in the beginning, but after a certain time, crystals were formed”. Moreover, for the setting “25 mg in 1 mL of each of ethyl acetate, ethyl formate, methyl propionate, ethanol, stirred”, the “Dissolution of Apixaban in non-halogen organic solvents” value is “not dissolved”. Also, the “Apixaban concentration in dichloromethane at which recrystallization occurs” value (dichloromethane) is at least 10 mg/mL.
